Biological target: T1, YqjM (Bacillus subtilis, UniProt P54550)
T1 construct: gene namA; wild type, purified recombinant enzyme; dimer, both protomers line the active site
T1 sequence (P54550 2-338): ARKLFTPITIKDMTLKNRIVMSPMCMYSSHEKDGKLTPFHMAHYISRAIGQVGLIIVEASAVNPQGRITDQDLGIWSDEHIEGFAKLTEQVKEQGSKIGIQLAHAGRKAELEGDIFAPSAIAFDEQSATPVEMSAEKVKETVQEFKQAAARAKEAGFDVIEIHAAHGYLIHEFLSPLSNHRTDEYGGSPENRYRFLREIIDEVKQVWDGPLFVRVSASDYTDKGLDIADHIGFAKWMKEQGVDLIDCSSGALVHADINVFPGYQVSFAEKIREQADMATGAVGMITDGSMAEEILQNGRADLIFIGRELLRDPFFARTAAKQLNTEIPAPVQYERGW
Assay: stopped-flow oxidation of prereduced enzyme
Format: biochemical
Conditions: anoxic; no kinetic saturation in the accessible range

In the case of `C[C@@]1(c2ccccc2)C=CC(=O)CC1` [2a, cyclohexenone 2a], the “kobs at 800 μM” value is reported as “Both compounds oxidized prereduced YqjM relatively slowly”.

Source: article PMC11075021, “Asymmetric Synthesis of Chiral 2-Cyclohexenones with Quaternary Stereocenters via Ene-Reductase Catalyzed Desymmetrization of 2,5-Cyclohexadienones” (ACS Catalysis, 2024)
